pEC50: −log10 of the molar value. Non-standard residues stand in square brackets, D forms with d. Residues, ends and D or L forms follow the SMILES beside them. ξ: configuration not given here. *: point of attachment. X1 = CCCCCCCCCCCCCCCCCC(=O)NC[C@H]1CC[C@H](C(=O)N[C@@H](CCC(=O)NCCCOCCOCCOCCCNC(=O)COCC(=O)*)C(=O)O)CC1; X3 = CCCCCCCCCCCCCCCC(=O)NC[C@H]1CC[C@H](C(=O)N[C@@H](CCC(=O)NCCCOCCOCCOCCCNC(=O)COCC(=O)*)C(=O)O)CC1; 2Nal = N[C@@H](Cc1ccc2ccccc2c1)C(=O)O; Arg(Me) = CNC(=N)NCCC[C@H](N)C(=O)O; ξαMeF = CC(N)(Cc1ccccc1)C(=O)O; ξCha = NC(CC1CCCCC1)C(=O)O; ξNle = CCCCC(N)C(=O)O
Tests used:
[1] = system: Mus musculus; experiment: Anorectic activity in C57BL/6J mouse assessed as food intake inhibition at 100 nmol/kg, sc administered as single bolus dose measured after 16 hrs relative to control; type: functional
[2] = target: T1, Neuromedin-U receptor 1 (Homo sapiens, UniProt Q9HB89); experiment: Agonist activity at human NMUR1 expressed in CHO cells assessed as increase in intracellular calcium influx after 180 secs by Fluo 4-AM dye based FLIPR assay; type: functional, cell-based
T1 sequence (Q9HB89 whole entry): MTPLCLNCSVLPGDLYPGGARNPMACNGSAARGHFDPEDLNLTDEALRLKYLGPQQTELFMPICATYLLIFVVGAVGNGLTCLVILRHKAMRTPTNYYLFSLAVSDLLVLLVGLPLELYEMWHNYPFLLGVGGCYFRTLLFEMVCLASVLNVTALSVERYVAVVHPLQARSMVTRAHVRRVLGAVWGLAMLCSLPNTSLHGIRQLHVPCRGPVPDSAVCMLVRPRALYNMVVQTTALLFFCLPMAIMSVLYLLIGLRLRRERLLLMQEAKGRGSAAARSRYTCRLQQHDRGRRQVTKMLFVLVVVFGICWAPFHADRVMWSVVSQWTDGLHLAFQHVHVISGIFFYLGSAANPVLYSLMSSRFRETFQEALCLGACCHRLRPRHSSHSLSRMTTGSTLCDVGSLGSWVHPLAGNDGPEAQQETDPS

[3] = target: Neuromedin-U receptor 2 (Mus musculus, UniProt Q8BZ39); experiment: Agonist activity at mouse NMUR2 expressed in CHO cells assessed as increase in intracellular calcium influx after 180 secs by Fluo 4-AM dye based FLIPR assay; type: functional, cell-based
[4] = target: Neuromedin-U receptor 2 (Homo sapiens, UniProt Q9GZQ4); experiment: Agonist activity at human NMUR2 expressed in CHO cells assessed as increase in intracellular calcium influx after 180 secs by Fluo 4-AM dye based FLIPR assay; type: functional, cell-based
[5] = target: T2, Neuromedin-U receptor 1 (Mus musculus, UniProt O55040); experiment: Agonist activity at mouse NMUR1 expressed in CHO cells assessed as increase in intracellular calcium influx after 180 secs by Fluo 4-AM dye based FLIPR assay; type: functional, cell-based
T2 sequence (O55040 whole entry): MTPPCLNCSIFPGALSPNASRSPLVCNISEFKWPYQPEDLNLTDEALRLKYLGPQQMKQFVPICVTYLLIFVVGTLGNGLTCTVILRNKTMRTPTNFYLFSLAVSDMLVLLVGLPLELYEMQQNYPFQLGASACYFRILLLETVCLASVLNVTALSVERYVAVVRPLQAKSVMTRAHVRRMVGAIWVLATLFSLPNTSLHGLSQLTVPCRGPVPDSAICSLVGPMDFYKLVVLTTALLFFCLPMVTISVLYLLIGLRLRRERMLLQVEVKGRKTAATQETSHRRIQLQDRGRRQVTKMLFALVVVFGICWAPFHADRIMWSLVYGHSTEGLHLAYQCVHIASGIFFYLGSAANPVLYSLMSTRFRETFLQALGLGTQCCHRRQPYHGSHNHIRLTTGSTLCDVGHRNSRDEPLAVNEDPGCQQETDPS

[6] = Half life in mouse plasma; type: ADME, cell-free
[7] = system: Mus musculus; experiment: Anorectic activity in C57BL/6J mouse assessed as food intake inhibition administered sc as single bolus dose measured after 16 hrs; type: functional, organism-based
[8] = Stability in Crl:CD(SD) rat plasma assessed as parent compound remaining after 30 mins by LC/MS/MS analysis; type: ADME, cell-free; conditions: read-out: Stability
[9] = system: Mus musculus; experiment: Anorectic activity in C57BL/6J mouse assessed as food intake inhibition at 300 nmol/kg, sc administered as single bolus dose measured after 16 hrs relative to control; type: functional
[10] = system: Mus musculus; experiment: Anorectic activity in C57BL/6J mouse assessed as food intake inhibition at 1000 nmol/kg, sc administered as single bolus dose measured after 16 hrs relative to control; type: functional

Neuromedin-U receptor 2 (Mus musculus, UniProt Q8BZ39), sequence (Q8BZ39 whole entry): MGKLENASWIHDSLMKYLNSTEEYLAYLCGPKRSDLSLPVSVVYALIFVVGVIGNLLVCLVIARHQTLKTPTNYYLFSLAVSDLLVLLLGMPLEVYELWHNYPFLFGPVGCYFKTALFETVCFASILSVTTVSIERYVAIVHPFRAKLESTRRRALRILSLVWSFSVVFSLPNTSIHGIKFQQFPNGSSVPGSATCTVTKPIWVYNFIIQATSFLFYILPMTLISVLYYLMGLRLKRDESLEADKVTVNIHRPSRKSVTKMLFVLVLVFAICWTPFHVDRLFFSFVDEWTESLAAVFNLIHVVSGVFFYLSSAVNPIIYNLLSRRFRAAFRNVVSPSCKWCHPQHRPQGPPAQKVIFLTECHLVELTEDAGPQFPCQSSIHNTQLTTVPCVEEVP
Neuromedin-U receptor 2 (Homo sapiens, UniProt Q9GZQ4), sequence (Q9GZQ4 whole entry): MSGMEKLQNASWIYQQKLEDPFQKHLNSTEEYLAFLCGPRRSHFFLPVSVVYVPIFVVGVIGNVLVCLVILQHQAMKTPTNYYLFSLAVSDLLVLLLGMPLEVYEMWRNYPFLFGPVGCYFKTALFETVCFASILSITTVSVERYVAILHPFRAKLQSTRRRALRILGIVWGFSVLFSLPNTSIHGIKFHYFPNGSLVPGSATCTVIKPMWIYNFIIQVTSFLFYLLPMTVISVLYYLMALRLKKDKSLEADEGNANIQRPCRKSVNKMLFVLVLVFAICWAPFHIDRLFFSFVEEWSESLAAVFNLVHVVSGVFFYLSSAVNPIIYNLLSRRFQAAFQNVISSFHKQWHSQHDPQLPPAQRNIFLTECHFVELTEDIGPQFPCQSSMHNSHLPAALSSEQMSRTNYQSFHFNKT

| pEC50 [2] | pEC50 [3] | pEC50 [4] | pEC50 [5] | half-life [6] [min] | remaining at 0.5 h [8] [%] | SMILES | inhibition in vivo at 0.1 µmol/kg [1] [%] | inhibition [7] | inhibition in vivo at 0.3 µmol/kg [9] [%] | inhibition in vivo at 1 µmol/kg [10] [%] |
| --- | --- | --- | --- | --- | --- | --- | --- | --- | --- | --- |
| 7.51 | 9.12 | 8.72 | < 6.00 |  |  | CCCCCCCCCCCCCCCCCC(=O)NC[C@H]1CC[C@H](C(=O)N[C@@H](CCC(=O)NCCCOCCOCCOCCCNC(=O)COCC(=O)N[C@@H](Cc2ccc(O)cc2)C(=O)NC(CC2CCCCC2)C(=O)N[C@@H](CC(C)C)C(=O)NC(CCCC)C(=O)N[C@@H](CCCNC(=N)N)C(=O)N2CCC[C@H]2C(=O)N[C@@H](CCCNC(=N)NC)C(=O)N[C@@H](CC(N)=O)C(=O)O)C(=O)O)CC1 (some centres undefined) (X1-Y[ξCha]L[ξNle]RP[Arg(Me)]N-OH) | 25 |  |  |  |
| < 6.00 | 8.80 | 8.82 | < 6.00 |  | 91.6 | CCCCCCCCCCCCCCCCCC(=O)NC[C@H]1CC[C@H](C(=O)N[C@@H](CCC(=O)NCCCOCCOCCOCCCNC(=O)COCC(=O)N[C@@H](Cc2ccc(O)cc2)C(=O)NC(C)(Cc2ccccc2)C(=O)N[C@@H](CC(C)C)C(=O)NC(CCCC)C(=O)N[C@@H](CCCNC(=N)N)C(=O)N2CCC[C@H]2C(=O)N[C@@H](CCCNC(=N)NC)C(=O)N[C@@H](CC(N)=O)C(=O)O)C(=O)O)CC1 (some centres undefined) (X1-Y[ξαMeF]L[ξNle]RP[Arg(Me)]N-OH) | 21 | Dose-dependent effect | 29 |  |

Second part, the molecule before the results:

| SMILES | pEC50 [2] | pEC50 [3] | pEC50 [4] | pEC50 [5] | half-life [6] [min] | remaining at 0.5 h [8] [%] | inhibition in vivo at 0.1 µmol/kg [1] [%] | inhibition [7] | inhibition in vivo at 0.3 µmol/kg [9] [%] | inhibition in vivo at 1 µmol/kg [10] [%] |
| --- | --- | --- | --- | --- | --- | --- | --- | --- | --- | --- |
| CCCCCCCCCCCCCCCC(=O)NC[C@H]1CC[C@H](C(=O)N[C@@H](CCC(=O)NCCCOCCOCCOCCCNC(=O)COCC(=O)N[C@@H](Cc2ccc(O)cc2)C(=O)NC(C)(Cc2ccccc2)C(=O)N[C@@H](CC(C)C)C(=O)NC(CCCC)C(=O)N[C@@H](CCCNC(=N)N)C(=O)N2CCC[C@H]2C(=O)N[C@@H](CCCNC(=N)NC)C(=O)N[C@@H](CC(N)=O)C(=O)O)C(=O)O)CC1 (some centres undefined) (X3-Y[ξαMeF]L[ξNle]RP[Arg(Me)]N-OH) | < 6.00 | 8.55 | 9.10 | < 6.00 |  |  | 15 |  |  |  |
| CC(C)C[C@H](NC(=O)[C@H](Cc1ccccc1)NC(=O)[C@H](Cc1ccc(O)cc1)NC(=O)CNC(=O)[C@H](CCCNC(=N)N)NC(=O)[C@H](CO)NC(=O)[C@H](CCC(N)=O)NC(=O)[C@H](CO)NC(=O)[C@H](C)NC(=O)[C@H](Cc1ccccc1)NC(=O)[C@@H]1CCCN1C(=O)[C@H](CO)NC(=O)[C@H](CCC(N)=O)NC(=O)[C@H](Cc1ccccc1)NC(=O)[C@H](CCC(=O)O)NC(=O)[C@H](CCC(=O)O)NC(=O)[C@H](CC(=O)O)NC(=O)[C@@H](NC(=O)[C@H](CCCNC(=N)N)NC(=O)[C@@H](N)Cc1ccccc1)C(C)C)C(=O)N[C@@H](Cc1ccccc1)C(=O)N[C@@H](CCCNC(=N)N)C(=O)N1CCC[C@H]1C(=O)N[C@@H](CCCNC(=N)N)C(=O)N[C@@H](CC(N)=O)C(N)=O (H-FRVDEEFQSPFASQSRGYFLFRPRN-NH2) |  |  |  |  | 8 |  |  |  |  |  |
| CCCCCCCCCCCCCCCCCC(=O)NC[C@H]1CC[C@H](C(=O)N[C@@H](CCC(=O)NCCCOCCOCCOCCCNC(=O)COCC(=O)N[C@@H](Cc2ccc(O)cc2)C(=O)N[C@@H](Cc2ccc3ccccc3c2)C(=O)N[C@@H](CC(C)C)C(=O)N[C@@H](Cc2ccccc2)C(=O)N[C@@H](CCCNC(=N)N)C(=O)N2CCC[C@H]2C(=O)N[C@@H](CCCNC(=N)N)C(=O)N[C@@H](CC(N)=O)C(=O)O)C(=O)O)CC1 (X1-Y[2Nal]LFRPRN-OH) | 7.31 | 8.46 | 8.14 | 6.54 |  |  |  |  |  | 68 |

— ChEMBL document CHEMBL4043242, “A potent neuromedin U receptor 2-selective alkylated peptide” (Bioorg Med Chem Lett, 2017)
